Data reported in patent US20260144769A1, “4-PHENYLBUTYRATE RESTORED GABA UPTAKE AND REDUCED SEIZURES IN SLC6A1 VARIANT-MEDIATED DISORDERS” (Vanderbilt University, priority 2022, published 2026).

What was measured:
SLC6A1^+/S295L mice = assay: Video-monitoring synchronized EEG recordings, seizure activity; type: in vivo, mouse
Procedure: The working solution was stored at 4° C.
The surgery to implant the EEG head mount and the video-monitoring synchronized EEG recordings were conducted as described by Kristensen et al., Pharmcol. Rev. 63 (3): 585-640 (2011) and Cai et al., Exp. Neurol. 3:112973 (2019).
For recordings, the sampling rate was set at 400 Hz with a pre-amplifier gain of […]. […] EEG recordings were scored blindly by a skilled scorer using the Sirenia Seizure Pro software. A power analysis was performed using the theta frequency band of 5-7 Hz. The 5-7 Hz SWDs band was chosen because it is the mouse correlate of 2-4 Hz SWDs in humans. An average power was calculated using baseline recordings and applied to seizure analysis for treatment recordings. Seizures identified by the software were confirmed using video recordings of the period. The Racine scale was used for seizure identification (Stage 1: mouth/facial movements; Stage 2: head nodding; Stage 3: forelimb clonus; Stage 4: rearing; Stage 5: rearing and falling). The identified SWDs were then confirmed with video monitoring and compared across treated and non-treated recordings. The total seizure events over 48 hrs of EEG recordings were reported.
First, ˜2-month-old mice were implanted with EEG head mounts. After 5-7 days recovery, the mice were treated with a normal saline vehicle for 7 days, and then subject to video monitored EEG recording for 48 hrs. […]

GAT-1 = biological target: T1, GAT-1 (Rattus norvegicus, UniProt P23978); assay: 3H GABA uptake, HEK cells transfected with GAT-1 cDNA with or without PBA (dual therapy); type: cell-based
T1 construct: EYFP (N); expressed in transfected cells; host or cells: HEK (HEK293T) cells
Procedure: In cell models, HEK293T cells were transfected with SLC6A1, SLC6A1(A288V) or SLC6A1(S295L) cDNAs. The live cells were then fluxed and evaluated for GABA uptake with a 3H radiolabeling GABA uptake assay. In order to evaluate gene expression and protein trafficking, total protein from cell lysates were subjected to SDS-PAGE and immunoblotted for GAT-1 and GFP. Gene expression was evaluated at a variety of gene therapy dosages.

[1] = biological target: T2, GAT-1 in corrected isogenic control astrocytes (Homo sapiens, UniProt P30531); assay: 3H GABA uptake, corrected isogenic control iPSC derived astrocytes; type: cell-based; details: PBA 2 mM, 24 hrs
T2 construct: endogenous in cells; host or cells: astrocytes differentiated from CRISPR-corrected isogenic control iPSCs
T2 sequence (P30531 whole entry): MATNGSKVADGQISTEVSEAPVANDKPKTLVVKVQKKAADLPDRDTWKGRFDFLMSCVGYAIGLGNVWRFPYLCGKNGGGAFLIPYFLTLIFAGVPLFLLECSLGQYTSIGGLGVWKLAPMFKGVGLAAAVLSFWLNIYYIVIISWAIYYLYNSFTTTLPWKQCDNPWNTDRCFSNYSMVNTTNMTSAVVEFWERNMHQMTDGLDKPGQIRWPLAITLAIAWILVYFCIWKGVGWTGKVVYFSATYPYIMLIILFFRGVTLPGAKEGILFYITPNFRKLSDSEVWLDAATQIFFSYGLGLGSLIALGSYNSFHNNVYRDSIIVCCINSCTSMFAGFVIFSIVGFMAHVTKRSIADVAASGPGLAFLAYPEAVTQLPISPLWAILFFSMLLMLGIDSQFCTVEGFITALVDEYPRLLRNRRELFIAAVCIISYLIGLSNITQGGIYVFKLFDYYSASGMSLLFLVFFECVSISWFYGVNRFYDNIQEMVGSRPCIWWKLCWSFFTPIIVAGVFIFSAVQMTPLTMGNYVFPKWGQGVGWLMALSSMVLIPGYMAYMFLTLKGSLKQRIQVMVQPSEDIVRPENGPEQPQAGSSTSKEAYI
Procedure: Live images of human neural progenitor cells (NPCs), astrocytes and GABAergic inhibitory neurons differentiated from the human induced pluripotent stem cells (iPSCs) on the day of experiment. […] The DMSO treated corrected or patient cells was taken as 1. […] GABA flux was measured after 30 min transport at room temperature. The influx of GABA, expressed in pmol/μg protein/min, was averaged from duplicates for each condition and for each transfection. The average counting was DMSO treated condition taken as 1. In FIG. 5B, FIG. 5D and FIG. 5F, 966 stands for CI-966 (50 μM) and 711 stands for NNC-711 (35 μM) that was applied 30 min to the astrocytes transfected with the wildtype GAT-1^YFP before preincubation and removed during preincubation. In FIGS. 5B and D, ***p<0.001 vs. corrected DMSO treated. § § <0.01, § § § p<0.001 vs. patient DMSO treated. […] In FIGS. 5B-E, n=4-8 batches of cells. In FIG. 5F, n=4-5 different transfections). Unpaired t test was used for FIG. 5C and FIG. 5E. […] Values were expressed as mean±S.E.M.). […]
Briefly, cells were cultured in […] dishes for 3 days before the GABA uptake experiment in DMEM with 10% fetal bovine serum and 1% penicillin/streptomycin. […] Glacial acetic acid was added, and lysates were then determined on a liquid scintillator with QuantaSmart. […]

SMILES: O=C(O)CCCc1ccccc1 [PBA, 4-phenylbutyric acid]
- total number of 5-7 Hz SWDs over 48 hrs EEG recordings (SLC6A1^+/S295L mice; PBA 100 mg/kg, ip, single dose daily, 7 days (vehicle 127.7±34.08)): 33.3±13.02
- reduction of seizure burden (SLC6A1^+/S295L mice; PBA treatment alone, 1 week): ~76%
- GABA uptake, combined cDNA/PBA treatment vs. cDNA alone (GAT-1; 0.25 μg GAT-1 cDNA + 2 mM PBA vs. 0.5 μg GAT-1 cDNA alone): No significant difference
- GABA uptake function, dual therapy vs. cDNA treatment alone (GAT-1; equal cDNA amount with PBA, variety of cDNA doses in HEK cells): greater GABA uptake function at all but one dose size
- GABA uptake normalized to its DMSO treated [1]: 1.173±0.026
